Data reported in PMC4726147, “Structural Insights into the Quaternary Catalytic Mechanism of Hexameric Human Quinolinate Phosphoribosyltransferase, a Key Enzyme in de novo NAD Biosynthesis” (Scientific Reports, 2016).

Key:
Type in all cases: binding
[1] = target: T1, Quinolinate phosphoribosyltransferase (HsQPRT) (Homo sapiens, UniProt Q15274); assay: ITC and crystal structure ([…] Å)
T1 construct: gene QPRT; full-length HsQPRT (residues 1–297), hexamer

[2] = target: T2, Quinolinate phosphoribosyltransferase (HsQPRT) NΔ9 mutant (Homo sapiens, UniProt Q15274, NΔ9); assay: ITC
T2 construct: gene QPRT; NΔ9, N-terminal truncated (helix α1 removed), dimer
T2 sequence (Q15274 10-297, stated change not applied): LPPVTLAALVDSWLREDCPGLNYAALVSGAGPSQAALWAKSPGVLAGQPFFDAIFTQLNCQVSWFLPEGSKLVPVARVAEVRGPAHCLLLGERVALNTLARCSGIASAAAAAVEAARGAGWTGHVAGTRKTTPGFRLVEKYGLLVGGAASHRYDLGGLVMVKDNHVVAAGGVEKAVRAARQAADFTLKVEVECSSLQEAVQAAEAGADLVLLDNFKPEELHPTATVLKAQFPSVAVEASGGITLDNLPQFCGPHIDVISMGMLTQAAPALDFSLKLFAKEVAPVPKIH

[3] = target: T1, Quinolinate phosphoribosyltransferase (HsQPRT); assay: co-crystal structure ([…] Å)
[4] = target: T1, Quinolinate phosphoribosyltransferase (HsQPRT); assay: ITC

T1 sequence (Q15274 whole entry, the tested form may be a part): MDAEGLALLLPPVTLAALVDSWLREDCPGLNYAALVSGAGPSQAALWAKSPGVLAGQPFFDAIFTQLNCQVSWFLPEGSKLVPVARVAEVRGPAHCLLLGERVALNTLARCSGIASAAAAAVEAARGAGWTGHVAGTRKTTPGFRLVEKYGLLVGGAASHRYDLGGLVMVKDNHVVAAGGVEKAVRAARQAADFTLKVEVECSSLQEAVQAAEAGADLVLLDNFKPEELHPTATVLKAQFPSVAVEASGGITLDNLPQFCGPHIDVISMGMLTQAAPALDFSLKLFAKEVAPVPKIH

For O=C(O)c1cccnc1C(=O)O [QA, quinolinic acid], the Kd [1] was 4.8 ± 0.4 µM and the Kd [2] was 401 ± 56 µM.
O=C(O)c1ccc[n+]([C@@H]2O[C@H](COP(=O)([O-])O)[C@@H](O)[C@H]2O)c1 [NAMN, nicotinic acid mononucleotide] was tested, and the “co-crystal structure (2.6 Å)” value [3] was “clear density for two loops (loops L and O) and the substrate molecules (QA and NAMN) bound to the protein”.
O=C(O)c1ccccc1C(=O)O [phthalic acid] gave a Kd [4] of 5.2 ± 0.2 µM.
